# Like-named read-outs stand apart in the source and are kept apart here.
# Key:
# [1] = test system: PC-3 PIP (PSMA^+) and PC-3 flu (PSMA^-) xenografts
# [2] = test system: PSMA^+ PC-3 PIP and PC-3 flu xenografts; assay: PET-CT imaging, PC-3 PIP and PC-3 flu xenografts; assay type: in vivo; details: dynamic scan 94-120 min p.i., i.v.
smiles,measurement,setting,value
"O=C(O)CCC(NC(=O)NC(CCCCNC(=O)c1ccc([18F])cc1)C(=O)O)C(=O)O (stereo not drawn) [Compound [^18F]6, 2-[3-[1-carboxy-5-(4-[^18F]fluoro-benzoylamino)-pentyl]-ureido]-pentanedioic acid]",uptake in PC-3 PIP tumor,[1]; 30 min p.i.,8.6 ± 3.1 % ID/g
same,uptake in PC-3 flu tumor,[1]; 30 min p.i.,0.8 ± 0.3 % ID/g
same,uptake in bladder,[1]; 30 min p.i.,6.8 ± 3.5 % ID/g
same,uptake in blood,[1]; 30 min p.i.,2.5 ± 1.7 % ID/g
same,uptake in heart,[1]; 30 min p.i.,0.8 ± 0.1 % ID/g
same,uptake in kidney,[1]; 30 min p.i.,72 ± 3 % ID/g
same,uptake in large int.,[1]; 30 min p.i.,1.2 ± 0.8 % ID/g
same,uptake in liver,[1]; 30 min p.i.,8.7 ± 1.8 % ID/g
same,uptake in lung,[1]; 30 min p.i.,1.7 ± 0.3 % ID/g
same,uptake in muscle,[1]; 30 min p.i.,2.4 ± 3.1 % ID/g
same,uptake in pancreas,[1]; 30 min p.i.,0.8± 0.1 % ID/g
same,uptake in small int.,[1]; 30 min p.i.,1.7 ± 0.7 % ID/g
same,uptake in spleen,[1]; 30 min p.i.,12.7 ± 0.4 % ID/g
same,uptake in stomach,[1]; 30 min p.i.,0.8 ± 0.1 % ID/g
same,uptake in PC-3 PIP tumor,[1]; 60 min p.i.,6.4 ± 0.9 % ID/g
same,uptake in bladder,[1]; 60 min p.i.,17 ± 21 % ID/g
same,uptake in heart,[1]; 60 min p.i.,0.2 ± 0.02 % ID/g
same,uptake in kidney,[1]; 60 min p.i.,48 ± 5 % ID/g
same,uptake in large int.,[1]; 60 min p.i.,0.5 ± 0.1 % ID/g
same,uptake in liver,[1]; 60 min p.i.,5.8 ± 0.6 % ID/g
same,uptake in lung,[1]; 60 min p.i.,0.5 ± 0.1 % ID/g
same,uptake in muscle,[1]; 60 min p.i.,0.5 ± 0.7 % ID/g
same,uptake in small int.,[1]; 60 min p.i.,0.6 ± 0.2 % ID/g
same,uptake in spleen,[1]; 60 min p.i.,7.2 ± 1.6 % ID/g
same,uptake in stomach,[1]; 60 min p.i.,0.25 ± 0.1 % ID/g
same,uptake in PC-3 PIP tumor,[1]; 2 h p.i.,3.7 ± 1.2 % ID/g
same,uptake in PC-3 flu tumor,[1]; 2 h p.i.,0.25 ± 0.1 % ID/g
same,uptake in heart,[1]; 2 h p.i.,0.15 ± 0.05 % ID/g
same,uptake in kidney,[1]; 2 h p.i.,29 ± 12 % ID/g
same,uptake in large int.,[1]; 2 h p.i.,0.2 ± 0.1 % ID/g
same,uptake in liver,[1]; 2 h p.i.,11.7 ± 7.0 % ID/g
same,uptake in muscle,[1]; 2 h p.i.,0.2 ± 0.1 % ID/g
same,uptake in pancreas,[1]; 2 h p.i.,0.15 ± 0.03 % ID/g
same,uptake in spleen,[1]; 2 h p.i.,4.4 ± 1.2 % ID/g
same,uptake in bladder,[1]; 5 h p.i.,5.2 ± 8.9 % ID/g
same,uptake in blood,[1]; 5 h p.i.,0.03 ± 0.00 % ID/g
same,uptake in heart,[1]; 5 h p.i.,0.03 ± 0.01 % ID/g
same,uptake in kidney,[1]; 5 h p.i.,14 ± 9 % ID/g
same,uptake in large int.,[1]; 5 h p.i.,0.6 ± 0.6 % ID/g
same,uptake in pancreas,[1]; 5 h p.i.,0.05 ± 0.03 % ID/g
same,uptake in stomach,[1]; 5 h p.i.,0.04 ± 0.02 % ID/g
same,uptake pattern on PET,[2],"easily observed within PSMA^+ PIP tumor, none within flu tumor, high renal uptake and a modest degree of liver uptake"
